Read-outs that look alike come from different tables or passages of the source.
Tests used:
[1] = system: 3D7-MR4 trophozoite parasite-infected RBCs; conditions: 10 × IC50^72h; ref Allman et al., 2016; cited from earlier work
[2] = system: Plasmodium falciparum 3D7-A10 parasites; assay: Stage specificity assay (8-h exposure of synchronized stages, IC50^8h); assay type: cell-based; conditions: for IC50: Plasmodium falciparum
[3] = system: asynchronous 3D7-A10 parasite cultures; assay: Standard 72-h exposure asexual blood stage susceptibility assay (IC50^72h); assay type: cell-based, Plasmodium falciparum; conditions: Plasmodium falciparum, 3D7, 72 h, read-out: Overall (72hr assay) Mean IC50 (IC50^72h)
[4] = system: 3D7-MR4 trophozoite parasite-infected RBCs; assay: Metabolomic profiling (hydrophilic metabolite changes, UHPLC-MS); assay type: cell-based, Plasmodium falciparum

CCN(CC)CCn1c(=N)n(CC(O)c2ccc(Cl)c(Cl)c2)c2ccccc21.Cl (stereo not shown) [MMV000248]
peptide levels (hemoglobin catabolism signature) [1]: decreased peptide levels
Ratio lowest IC50 8hr/IC50 72hr ([2]; 3D7-A10): 3.7
IC50 ([2]; 3D7, read-out: Early trophozoites Mean IC50 (IC50^8h), 8-h exposure 16–24 hr, 3D7-A10, survival at 60 h): 411 nM
IC50 ([2]; 3D7, read-out: Late rings Mean IC50 (IC50^8h), 8-h exposure 8–16 hr, 3D7-A10, survival at 60 h): 6740 nM
IC50 ([2]; 3D7, read-out: Late trophozoites Mean IC50 (IC50^8h), 8-h exposure 24–32 hr, 3D7-A10, survival at 60 h): 376 nM
IC50 ([2]; 3D7, read-out: Schizonts Mean IC50 (IC50^8h), 8-h exposure 32–40 hr, 3D7-A10, survival at 60 h): 754 nM
Stage of peak activity (Figure 6) ([2]; period when the parasite was most susceptible (lowest IC50^8h)): trophozoites
Peak Activity (Table S1) ([2]; stage(s) with the lowest IC50^8h): Trophs
IC50 [3]: 103 nM
Log2(fold changes) 3-phosphoglycerate ([4]; metabolite 3-phosphoglycerate, log2 fold change): 0.5325
Log2(fold changes) 4-Pyridoxic acid ([4]; metabolite 4-Pyridoxic acid, log2 fold change): -0.4298
Log2(fold changes) 4-aminobutyrate ([4]; metabolite 4-aminobutyrate, log2 fold change): 0.1717
Log2(fold changes) 4-phosphopantetheine ([4]; metabolite 4-phosphopantetheine, log2 fold change): 0.0000
Log2(fold changes) 4-phosphopantothenate ([4]; metabolite 4-phosphopantothenate, log2 fold change): -0.4691
Log2(fold changes) 5-aminopentanoic acid ([4]; metabolite 5-aminopentanoic acid, log2 fold change): 0.0000
Log2(fold changes) 5-methyl-THF ([4]; metabolite 5-methyl-THF, log2 fold change): 0.0000
Log2(fold changes) 5-phosphoribosyl-1-pyrophosphate ([4]; metabolite 5-phosphoribosyl-1-pyrophosphate, log2 fold change): -1.6071
Log2(fold changes) 6-phospho-D-gluconate ([4]; metabolite 6-phospho-D-gluconate, log2 fold change): -0.0745
Log2(fold change) HVDD ([4]; metabolite HVDD): 0.0000
Log2(fold change) Hydroxyisocaproic acid ([4]; metabolite Hydroxyisocaproic acid): 0.0000
Log2(fold change) IDP ([4]; metabolite IDP): 0.0000
Log2(fold change) IMP ([4]; metabolite IMP): -0.5306
Log2(fold change) Inositol ([4]; metabolite Inositol): 0.0000
Log2(fold change) Isopentyl-PP ([4]; metabolite Isopentyl-PP): 0.0000
Log2(fold change) L-arginino-succinate ([4]; metabolite L-arginino-succinate): 0.0000
Log2(fold change) LD ([4]; metabolite LD): -0.2580
Log2(fold change) Myristoyl/tetradecanoyl-CoA ([4]; metabolite Myristoyl/tetradecanoyl-CoA): 0.0000
Log2(fold change) N-Acetyl-L-alanine ([4]; metabolite N-Acetyl-L-alanine): -0.7106
Log2(fold change) N-acetyl-L-ornithine ([4]; metabolite N-acetyl-L-ornithine): -2.2540
Log2(fold change) N-acetyl-glucosamine-1/6-phosphate ([4]; metabolite N-acetyl-glucosamine-1/6-phosphate): 0.4803
Log2(fold change) N-acetyl-glutamate ([4]; metabolite N-acetyl-glutamate): 0.5064
Log2(fold change) N-acetyl-glutamine ([4]; metabolite N-acetyl-glutamine): -0.2284
Log2(fold change) N-carbamoyl-L-aspartate ([4]; metabolite N-carbamoyl-L-aspartate): -0.8588
Log2(fold change) NAD+ ([4]; metabolite NAD+): -0.1903
Log2(fold change) NADH ([4]; metabolite NADH): 0.1160
Log2(fold change) NADP+ ([4]; metabolite NADP+): -0.0428
Log2(fold change) NADPH ([4]; metabolite NADPH): 0.7586
Log2(fold change) O-acetyl-L-serine ([4]; metabolite O-acetyl-L-serine): 0.0000
Log2(fold change) Octoluse 8/1P ([4]; metabolite Octoluse 8/1P): 0.0988
Log2(fold change) Octoluse Bisphosphate ([4]; metabolite Octoluse Bisphosphate): -0.4045
Log2(fold change) PD ([4]; metabolite PD): -2.8921
Log2(fold change) PE ([4]; metabolite PE): -2.0895
Log2(fold change) PEE ([4]; metabolite PEE): -1.2134
Log2(fold change) PEEK ([4]; metabolite PEEK): -1.2498
Log2(fold change) PVNF ([4]; metabolite PVNF): -4.7386
Log2(fold change) Pyroglutamic acid ([4]; metabolite Pyroglutamic acid): -0.2793
Log2(fold change) Pyrophosphate ([4]; metabolite Pyrophosphate): -1.6691
Log2(fold change) Ribose-5-phosphate ([4]; metabolite Ribose-5-phosphate): 0.0000
Log2(fold change) S-adenosyl-L-homocysteine ([4]; metabolite S-adenosyl-L-homocysteine): -0.0077
Log2(fold change) S-adenosyl-L-methioninamine ([4]; metabolite S-adenosyl-L-methioninamine): 0.0000
Log2(fold change) S-adenosyl-L-methionine ([4]; metabolite S-adenosyl-L-methionine): 0.0000
Log2(fold change) S-methyl-5'-thioadenosine ([4]; metabolite S-methyl-5'-thioadenosine): 0.7911
Log2(fold change) SD ([4]; metabolite SD): -1.1732
Log2(fold change) SDL ([4]; metabolite SDL): 0.0000
Log2(fold change) SID ([4]; metabolite SID): 0.0000
Log2(fold change) Sedoheptulose bisphosphate ([4]; metabolite Sedoheptulose bisphosphate): -0.2688
Log2(fold change) Thiamine pyrophosphate ([4]; metabolite Thiamine pyrophosphate): 0.0000
Log2(fold changes) UDP-D-glucose ([4]; metabolite UDP-D-glucose, log2 fold change): -0.0583
Log2(fold changes) UDP-D-glucuronate ([4]; metabolite UDP-D-glucuronate, log2 fold change): -0.2918
Log2(fold changes) UDP-N-acetyl-glucosamine ([4]; metabolite UDP-N-acetyl-glucosamine, log2 fold change): -0.1616
Log2(fold changes) UDP ([4]; metabolite UDP, log2 fold change): -0.0490
Log2(fold changes) UMP ([4]; metabolite UMP, log2 fold change): -0.4851
Log2(fold changes) UTP ([4]; metabolite UTP, log2 fold change): -1.1444
Log2(fold change) hydroxyphenylpyruvate ([4]; metabolite hydroxyphenylpyruvate): 0.0000
Log2(fold change) hydroxyproline/Aminolevulinate ([4]; metabolite hydroxyproline/Aminolevulinate): 0.0000
Log2(fold change) hypoxanthine ([4]; metabolite hypoxanthine): -0.4020
Log2(fold change) indole ([4]; metabolite indole): -0.6106
Log2(fold change) inosine ([4]; metabolite inosine): -0.0831
Log2(fold change) isoleucine ([4]; metabolite isoleucine): 0.0000
Log2(fold change) lactate ([4]; metabolite lactate): -0.0810
Log2(fold change) leucine ([4]; metabolite leucine): 0.0000
Log2(fold change) lysine ([4]; metabolite lysine): 0.0000
Log2(fold change) malate ([4]; metabolite malate): -0.9119
Log2(fold change) maleic acid ([4]; metabolite maleic acid): 0.0000
Log2(fold change) methionine ([4]; metabolite methionine): 0.0000
Log2(fold change) myo-inositol ([4]; metabolite myo-inositol): 0.1446
Log2(fold change) nicotinamide mononucleotide ([4]; metabolite nicotinamide mononucleotide): 0.0000
Log2(fold change) nicotinate ([4]; metabolite nicotinate): 0.0498
Log2(fold change) ornithine ([4]; metabolite ornithine): 0.1803
Log2(fold change) orotate ([4]; metabolite orotate): -0.8832
Log2(fold change) orotidine-5'-phosphate ([4]; metabolite orotidine-5'-phosphate): 0.0000
Log2(fold change) oxaloacetate ([4]; metabolite oxaloacetate): 0.0000
Log2(fold change) p-aminobenzoate ([4]; metabolite p-aminobenzoate): 0.0000
Log2(fold change) p-hydroxybenzoate ([4]; metabolite p-hydroxybenzoate): 0.2564
Log2(fold change) pantothenate ([4]; metabolite pantothenate): 0.0000
Log2(fold change) phenylalanine ([4]; metabolite phenylalanine): 0.0000
Log2(fold change) phenylpyruvate ([4]; metabolite phenylpyruvate): -0.8371
Log2(fold change) phosphoenolpyruvate ([4]; metabolite phosphoenolpyruvate): 0.4091
Log2(fold change) prephenate ([4]; metabolite prephenate): 0.0000
Log2(fold change) proline ([4]; metabolite proline): 0.0000
Log2(fold change) pyridoxine ([4]; metabolite pyridoxine): 0.0000
Log2(fold change) pyruvate ([4]; metabolite pyruvate): -0.4292
Log2(fold change) riboflavin ([4]; metabolite riboflavin): 0.0000
Log2(fold change) ribose ([4]; metabolite ribose): 0.0000
Log2(fold change) ribose-phosphate ([4]; metabolite ribose-phosphate): -0.0154
Log2(fold change) ribulose-5-phosphate ([4]; metabolite ribulose-5-phosphate): 0.0000
Log2(fold change) serine ([4]; metabolite serine): 0.0000
Log2(fold change) sn-glycerol-3-phosphate ([4]; metabolite sn-glycerol-3-phosphate): 0.2907
Log2(fold change) succinate/Methylmalonic acid ([4]; metabolite succinate/Methylmalonic acid): -0.5437
Log2(fold change) succinyl-CoA/methylmalonyl-CoA ([4]; metabolite succinyl-CoA/methylmalonyl-CoA): 0.0000
Log2(fold change) taurine ([4]; metabolite taurine): 0.0000
Log2(fold change) thiamine ([4]; metabolite thiamine): 0.0000
Log2(fold change) threonine/homoserine ([4]; metabolite threonine/homoserine): 0.0000
Log2(fold change) thymidine ([4]; metabolite thymidine): -0.8046
Log2(fold changes) thymine ([4]; metabolite thymine, log2 fold change): -0.3850
Log2(fold changes) trehalose-6-Phosphate ([4]; metabolite trehalose-6-Phosphate, log2 fold change): 0.0000
Log2(fold changes) tryptophan ([4]; metabolite tryptophan, log2 fold change): 0.0000
Log2(fold changes) tyrosine ([4]; metabolite tyrosine, log2 fold change): 0.0000
Log2(fold changes) uridine ([4]; metabolite uridine, log2 fold change): -0.9561

From article PMC7031696 (Cell chemical biology, 2019)
